In brackets after ≈: the same amount, converted by molar mass.

Here are results for 13 compounds from ChEMBL document CHEMBL4715849, “Recent Progress in the Discovery of Antifungal Agents Targeting the Cell Wall” (J Med Chem, 2020).

Series [1] deals with Candida albicans. In words: Antifungal activity against Candida albicans ATCC 10231 by CLSI-based serial dilution method. The series is classed as functional.
A short description of series [2]: Inhibition of Candida albicans GFA1 using D-Fru6P and L-glutamine as substrate by absorbance method.
For series [3], the system named is Aspergillus fumigatus. Briefly: Antifungal activity against Aspergillus fumigatus MF5668 by CLSI method. Type of series: functional.
Series [4] relates to Candida albicans. In words: Antifungal activity against Candida albicans Ca2323/ORF6.945 by CLSI method. Type of series: functional.
In series [5] the test system is Candida parapsilosis. Briefly: Antifungal activity against Candida parapsilosis ATCC22019 by CLSI method. The series is classed as functional. The settings on record: Lodderomyces parapsilosis.
The test system of series [6] is Candida albicans. In words: Antifungal activity against Candida albicans Ca1055 by CLSI method. Type of series: functional.
The nature of series [7]: Inhibition of Candida albicans GFA1 using D-Fru6P and L-glutamine as substrate incubated for 30 mins by Elson-Morgan method.
The test system of series [8] is Aspergillus fumigatus. In words: Antifungal activity against Aspergillus fumigatus clinical isolate 293 infected in Hartley guinea pig model of invasive pulmonary aspergillosis assessed as percent survival of pig at 10 mg/kg, sc administered until day 8 starting from day 1 post infection. Type of series: functional. The settings on record: Af293, sc, 192 h, time 8 day.

For series [9], the system named is Aspergillus fumigatus. In words: Antifungal activity against Aspergillus fumigatus clinical isolate 293 infected in Hartley guinea pig model of invasive pulmonary aspergillosis assessed as pig median survival time at 10 mg/kg, sc administered until day 8 starting from day 1 post infection. The settings on record: time 8 day. The series is classed as functional, Af293.

Series [10] has as its system Erythrocyte. In words: Hemolytic activity in ICR mouse red blood cells incubated for 2 hrs by visual observation. Type of series: ADME, cell-based.
The subject of series [11] is Candida parapsilosis. In words: Antifungal activity against Candida parakrusei FP586 by agar dilution method. The settings on record: Lodderomyces parapsilosis. Type of series: functional. On the technique in general: In agar dilution the substance is mixed into plates at graded concentrations.
Series [12] deals with Candida tropicalis. Briefly: Antifungal activity against Candida tropicalis FP583 by agar dilution method. Type of series: functional.
The test system of series [13] is Candida albicans. In words: Antifungal activity against Candida albicans FP616 by agar dilution method. Type of series: functional.
For series [14], the system named is Candida albicans. In words: Antifungal activity against Candida albicans FP614 by agar dilution method. Type of series: functional.
Series [15] deals with Pichia kudriavzevii. Briefly: Antifungal activity against Candida krusei FP585 by agar dilution method. The series is classed as functional.
Series [16] concerns Candida albicans. Briefly: Antifungal activity against Candida albicans FP615 by agar dilution method. The series is classed as functional.
For series [17], the system named is Candida albicans. In words: Antifungal activity against Candida albicans FP622 by agar dilution method. The series is classed as functional.
For series [18], the system named is Candida albicans. Briefly: Antifungal activity against Candida albicans ATCC 10261 incubated for 24 hrs by serial dilution method. Type of series: functional.
A short description of series [19]: Inhibition of Candida albicans glucosamine-6-phosphate synthase by Elson-Morgan method.
The test system of series [20] is Candida albicans. Briefly: Antifungal activity against Candida albicans ATCC 26278 incubated for 24 hrs by serial dilution method. Type of series: functional.
In series [21] the test system is Nakaseomyces glabratus. In words: Antifungal activity against Candida glabrata DSM 11226 by CLSI-based serial dilution method. The series is classed as functional.
The nature of series [22]: Antifungal activity against Candida arborea KKP319 by CLSI-based serial dilution method. The series is classed as functional.
Series [23] deals with Pichia kudriavzevii. In words: Antifungal activity against Candida krusei DSM 6128 by CLSI-based serial dilution method. Type of series: functional.
Series [24] is described as follows: Half life in human at 50 mg by liquid chromatography-tandem mass spectrometry method. Type of series: ADME. The note with it: in vivo.
Series [25] can be described thus: Half life in Beagle dog at 1.4 mg/kg, iv measured up to 72 hrs by LC-MS/MS analysis. The series is classed as ADME, organism-based, Canis lupus familiaris. The note with it: in vivo.
Series [26] relates to Candida parapsilosis. Briefly: Antifungal activity against Candida parapsilosis incubated for 24 hrs by CLSI method. Type of series: functional. The settings on record: Lodderomyces parapsilosis.
In series [27] the test system is Candida tropicalis. Briefly: Antifungal activity against Candida tropicalis incubated for 24 hrs by CLSI method. The series is classed as functional.
Series [28] in a line: Inhibition of Beta-1,3-glucan synthase in Schizosaccharomyces pombe pbr1-8.
The nature of series [29]: Inhibition of Cryptococcus neoformans (H99) 1,3-beta-glucan synthase component FKS1 using UDP-[14C]glucose as substrate. Further details: species or system Cryptococcus neoformans var. grubii H99.
Series [30] concerns Candida albicans. In words: Antifungal activity against Candida albicans incubated for 24 hrs by CLSI method. The series is classed as functional.
Series [31] can be described thus: Inhibition of Beta-1,3-glucan synthase in Schizosaccharomyces pombe pbr1-6.
Series [32] in a line: Inhibition of Beta-1,3-glucan synthase in wild type Schizosaccharomyces pombe.
Series [33] relates to Cryptococcus neoformans. Briefly: Antifungal activity against Cryptococcus neoformans H99 incubated for 72 hrs by CLSI M27A method. The series is classed as functional. The note with it: var grubii H99.
The test system of series [34] is Aspergillus fumigatus. In words: Antifungal activity against Aspergillus fumigatus CF1083 infected in iv dosed mouse model of pulmonary aspergillosis administered once daily for 4 days and measured on day 14. The series is classed as functional. The settings on record: 336 h, time 14 day.
Series [35] relates to Nakaseomyces glabratus. Briefly: Antifungal activity against Candida glabrata incubated for 24 hrs by CLSI method. The series is classed as functional.
Series [36] concerns Pichia kudriavzevii. In words: Antifungal activity against Candida krusei incubated for 24 hrs by CLSI method. The series is classed as functional.

The MIC is the least concentration at which growth counts as inhibited. Read a low MIC as a more susceptible organism. What is called IC50 is the concentration that gives 50% inhibition. Low readings indicate greater potency in that assay, high ones weaker potency in that assay. `CC(=O)N[C@H]1C(O)O[C@H](CS(=O)(=O)O)[C@@H](O)[C@@H]1O` (stereo partly specified) returned an MIC in series [1] of 500 µg/mL (≈ 1750 µM). Moreover, the IC50 in series [2] was above 5000 µM.

On to `Nc1ccccc1C(=O)OCC#CCOC(=O)c1ccccc1N`, for which the MIC in [3] stood at 4 µg/mL (≈ 12.3 µM); in series [4], 4 µg/mL (≈ 12.3 µM); in series [5] it was 2 µg/mL (≈ 6.17 µM); in series [6], 4 µg/mL (≈ 12.3 µM).

In series [1], `N[C@@H](CO)[C@@H](O)[C@H](O)[C@H](O)CS(=O)(=O)O` gave an MIC of 1000 µg/mL (≈ 4080 µM). Moreover, inhibition in [7] was half-maximal at 130 µM (IC50).

With `N[C@H]1C(O)O[C@H](CS(=O)(=O)O)[C@@H](O)[C@@H]1O` (stereo partly specified), the MIC in series [1] came out at 1000 µg/mL (≈ 4110 µM). Further, in series [2], the IC50 was determined as 80 µM.

Consider `COc1cc(C[C@@H](O)[C@@H]2NC(=O)[C@@H]3C[C@@H](O)CN3C(=O)[C@H]([C@@H](C)O)NC(=O)[C@H](NC[C@H]3CC[C@H](c4nnc(-c5ccc(N6CCC(OC)(C7CCCCC7)CC6)cc5)s4)CC3)C[C@@H](O)CNC(=O)[C@@H]3[C@@H](O)[C@@H](C)CN3C(=O)[C@H]([C@H](O)CCNC(CO)CO)NC2=O)ccc1O`, for which the survival at 10 mg/kg in [8] came out at 31.2%. Further, the Time in series [9] was 9.5 days.

Regarding `C[C@@H]1[C@H](O)[C@@H](C)/C=C/C=C/C=C/C=C/C=C/C=C/C=C/[C@H](O[C@@H]2O[C@H](C)[C@@H](O)[C@H](N)[C@@H]2O)C[C@@H]2O[C@](O)(C[C@@H](O)C[C@@H](O)[C@H](O)CC[C@@H](O)C[C@@H](O)CC(=O)O[C@H]1C)C[C@H](O)[C@H]2C(=O)O` [AMPHOTERICIN B], the MHC in series [10] came to 8 µg/mL.

Consider `CCC/C=C/C=C/[C@@H](O)C/C=C/C=C/C(=O)O[C@H]1[C@H](O[C@@H]2O[C@H](COC(=O)/C=C/C=C\CCCCC)[C@H](O)[C@H](O)[C@H]2O)[C@@H](CO)O[C@]2(OCc3cc(O)cc(O)c32)[C@@H]1O`, for which the MIC in series [11], in series [12], in series [13], in series [14], in [15] and in series [16] was 0.1 µg/mL (≈ 0.12 µM) each time. The same compound gave an MIC in series [17] of 0.1 µg/mL (≈ 0.12 µM).

In the case of `N[C@@H](CO)[C@@H](O)[C@H](O)[C@H](O)COP(=O)(O)O`, the MIC in series [18] and in series [20] was 5000 µg/mL (≈ 19100 µM) in each case. This compound showed an IC50 in series [19] of 230 µM.

`COS(=O)(=O)C[C@H]1OC(O)[C@H](NC(C)=O)[C@@H](O)[C@@H]1O` (stereo partly specified): the MIC in series [1], in series [21], in series [22] and in [23] was above 4000 µg/mL throughout.

With `COS(=O)(=O)C[C@H]1OC(O)[C@H](N)[C@@H](O)[C@@H]1O` (stereo partly specified), the minimum inhibitory concentration (MIC) in series [1], in series [21], in [22] and in [23] was above 4000 µg/mL throughout.

The half-life is the time needed for the level to fall by half in the phase considered. Low values mean rapid decline, high ones slow decline. `CC(=O)[O-].CCCCCOc1ccc(-c2ccc(-c3ccc(C(=O)N[C@H]4C[C@@H](O)[C@@H](NCC[N+](C)(C)C)NC(=O)[C@@H]5[C@@H](O)[C@@H](C)CN5C(=O)[C@H]([C@@H](C)O)NC(=O)[C@H]([C@H](O)[C@@H](O)c5ccc(O)cc5)NC(=O)[C@@H]5C[C@@H](O)CN5C(=O)[C@H]([C@@H](C)O)NC4=O)cc3)cc2)cc1`: the half-life in series [24] is above 130 h; in [25], 53.1 h.

The compound `CC(=O)N[C@@H](CO)[C@@H](O)[C@H](O)[C@H](O)CS(=O)(=O)O` registered an MIC in series [1] of 1000 µg/mL (≈ 3480 µM). Also, the IC50 in series [7] was above 5000 µM.

A word on the MIC90: it is the lowest concentration that inhibits either 90% of growth or 90% of the strains tested, depending on the study. Usually Ki stands for a measure of affinity in units of concentration, obtained from inhibition or displacement. Higher therefore signals a looser hold on the target. As a reminder, the ED50 is the midpoint of the dose-response relation. A low value points to an effect at a small dose. As to `CC[C@H](C)C[C@H](C)CCCCCCCCC(=O)N[C@H]1C[C@@H](O)[C@@H](NCCN)NC(=O)[C@@H]2[C@@H](O)CCN2C(=O)[C@H]([C@H](O)CCN)NC(=O)[C@H]([C@H](O)[C@@H](O)c2ccc(O)cc2)NC(=O)[C@@H]2C[C@@H](O)CN2C(=O)[C@H]([C@@H](C)O)NC1=O` [CASPOFUNGIN], the MIC90 in series [26] is 0.5 µg/mL (≈ 0.457 µM); in series [27] it was 1 µg/mL (≈ 0.915 µM); in series [30], 2 µg/mL (≈ 1.83 µM); in [35], 16 µg/mL (≈ 14.6 µM); in series [36], 1 µg/mL (≈ 0.915 µM). For the same compound, the half-inhibitory concentration (IC50) in series [28] was found to be 250 µg/mL (≈ 229 µM); in series [31] it was 150 µg/mL (≈ 137 µM); in series [32] it was 0.3 µg/mL (≈ 0.274 µM). The compound further returned an inhibition constant Ki in series [29] of 0.17 µM. For the same compound, the MIC in series [33] was 16 µg/mL (≈ 14.6 µM). In series [34], this compound yielded an ED50 above 15 mg/kg.
